The results in this text go back to patent publication US8105845B2, “System and method for carrying out multiple binding reactions in an array format” (Bio-Rad Haifa Ltd., priority 2003, dated 2012).

In experiment [1] the target is Cytochrome-P450 (CYP) 2D6 (Homo sapiens, UniProt P10635). The experiment can be described thus: biochemical.
For experiment [2], the target named is T1, Cytochrome-P450 (CYP) 1A2 (Homo sapiens, UniProt P05177).
T1 sequence (P05177 1-516): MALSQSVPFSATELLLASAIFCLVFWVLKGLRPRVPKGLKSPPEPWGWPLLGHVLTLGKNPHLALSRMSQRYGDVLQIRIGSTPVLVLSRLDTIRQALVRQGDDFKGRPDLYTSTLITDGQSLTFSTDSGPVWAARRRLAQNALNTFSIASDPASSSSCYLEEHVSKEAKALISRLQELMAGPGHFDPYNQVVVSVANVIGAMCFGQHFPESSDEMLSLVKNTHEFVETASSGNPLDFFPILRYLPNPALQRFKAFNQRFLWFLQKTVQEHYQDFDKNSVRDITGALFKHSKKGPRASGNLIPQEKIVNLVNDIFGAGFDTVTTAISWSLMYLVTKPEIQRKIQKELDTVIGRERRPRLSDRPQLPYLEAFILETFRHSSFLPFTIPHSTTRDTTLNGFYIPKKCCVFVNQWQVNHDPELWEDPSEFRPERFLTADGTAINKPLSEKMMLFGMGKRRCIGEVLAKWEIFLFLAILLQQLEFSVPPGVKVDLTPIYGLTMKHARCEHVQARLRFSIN
The experiment can be described thus: biochemical.

Experiment [3] addresses Cytochrome-P450 (CYP) 2C19 (Homo sapiens, UniProt P33261). Put plainly: biochemical.
The target in experiment [4] is Cytochrome-P450 (CYP) 2C9 (Homo sapiens, UniProt P11712). The experiment can be described thus: SPR array binding of compound targets to immobilized CYP450 enzyme probes.
Chain of Cytochrome-P450 (CYP) 2C9 (P11712 whole entry): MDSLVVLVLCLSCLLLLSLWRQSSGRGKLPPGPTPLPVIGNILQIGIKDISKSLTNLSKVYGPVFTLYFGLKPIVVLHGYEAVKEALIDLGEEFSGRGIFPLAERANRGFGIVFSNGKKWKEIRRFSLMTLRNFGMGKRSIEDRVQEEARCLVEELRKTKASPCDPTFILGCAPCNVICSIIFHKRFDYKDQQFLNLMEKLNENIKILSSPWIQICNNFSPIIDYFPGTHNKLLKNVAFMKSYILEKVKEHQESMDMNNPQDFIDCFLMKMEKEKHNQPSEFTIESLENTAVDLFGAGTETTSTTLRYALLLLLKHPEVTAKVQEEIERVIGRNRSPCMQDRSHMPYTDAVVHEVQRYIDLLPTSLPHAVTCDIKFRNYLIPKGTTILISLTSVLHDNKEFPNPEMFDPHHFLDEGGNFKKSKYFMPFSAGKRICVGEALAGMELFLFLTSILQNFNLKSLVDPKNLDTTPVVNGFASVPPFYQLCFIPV

Chain of Cytochrome-P450 (CYP) 2C19 (P33261 whole entry): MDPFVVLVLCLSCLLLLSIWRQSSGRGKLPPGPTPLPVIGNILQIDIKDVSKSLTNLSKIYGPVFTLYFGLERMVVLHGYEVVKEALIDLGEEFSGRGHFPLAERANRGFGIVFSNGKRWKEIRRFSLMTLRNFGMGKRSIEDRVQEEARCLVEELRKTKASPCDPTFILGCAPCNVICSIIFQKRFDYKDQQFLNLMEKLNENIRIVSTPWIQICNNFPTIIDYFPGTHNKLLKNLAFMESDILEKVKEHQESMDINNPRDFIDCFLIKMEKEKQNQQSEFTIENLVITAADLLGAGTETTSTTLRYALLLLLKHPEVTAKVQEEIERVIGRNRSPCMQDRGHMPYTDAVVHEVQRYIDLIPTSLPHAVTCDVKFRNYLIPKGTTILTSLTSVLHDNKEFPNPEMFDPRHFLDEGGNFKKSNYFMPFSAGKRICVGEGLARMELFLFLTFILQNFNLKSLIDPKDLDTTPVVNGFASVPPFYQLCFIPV
Chain of Cytochrome-P450 (CYP) 2D6 (P10635 whole entry): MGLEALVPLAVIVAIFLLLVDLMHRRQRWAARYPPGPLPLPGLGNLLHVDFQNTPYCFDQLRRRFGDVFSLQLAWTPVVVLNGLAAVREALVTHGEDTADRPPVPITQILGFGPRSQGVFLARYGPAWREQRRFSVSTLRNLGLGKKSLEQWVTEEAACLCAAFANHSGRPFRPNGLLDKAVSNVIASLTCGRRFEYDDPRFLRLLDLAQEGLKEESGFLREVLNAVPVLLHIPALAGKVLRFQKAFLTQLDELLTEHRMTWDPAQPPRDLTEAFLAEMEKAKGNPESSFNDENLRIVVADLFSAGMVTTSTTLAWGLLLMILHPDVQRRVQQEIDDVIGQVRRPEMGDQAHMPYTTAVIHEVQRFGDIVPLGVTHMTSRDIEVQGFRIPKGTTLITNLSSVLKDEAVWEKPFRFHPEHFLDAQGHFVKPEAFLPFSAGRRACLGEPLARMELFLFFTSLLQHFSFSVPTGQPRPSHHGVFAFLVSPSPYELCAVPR

For orientation: Kd means the free concentration of one partner at which half of the binding sites on the other are occupied at equilibrium, for simple one-to-one binding. Read a low Kd as higher affinity. For `O=C(O)Cc1ccccc1Nc1c(Cl)cccc1Cl` [Diclofenac], the figures for the Kd in experiment [1], in experiment [2] and in experiment [3] were 0.681 mM, 14.2 mM and 0.717 mM, respectively.
Consider `COc1ccc2c(c1)[C@]13CCCC[C@@H]1[C@H](C2)N(C)CC3` [Dexomethorphan], for which the Kd in experiment [1] turned out to be 60.4 mM; in experiment [3], 7.9 mM; in experiment [4], 28.3 mM.
For `CC(C)NCC(O)COc1cccc2ccccc12` (stereo not drawn) [Propranolol], the Kd was 0.873 mM in experiment [2], 6.59 mM in experiment [3] and 5.13 mM in experiment [4].
